The target of the test is recombinant eIF4E (Homo sapiens (Human), UniProt P06730). Kind of test: Fluorescence polarization competition assay for eIF4E binding potency. The gist of the method: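 IC50 derived from fluorescence polarization over an 8-point, 3-fold compound series after 30 min room-temperature equilibration in the dark. Mix: eIF4E 75 nM pre-bound 5 min to 20 nM EDA-m^7GDP-ATTO-550; buffer 20 mM Tris pH 7.5, 100 mM NaCl, 1 mM DTT, 0.02% Tween-20; DMSO 1%.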
(Polarisation of emitted light reports the rotation of a fluorescent probe.)

The mark [1] stands for this setting: fluorescence polarization competition, 75 nM recombinant eIF4E, 20 nM EDA-m7GDP-ATTO-550, IC50 class, read-out: elF4E FP.
The mark [2] stands for this setting: inhibition of eIF4E/EDA-m7GDP-ATTO-550 binding by 50%, Table 4B calculated values, read-out: IC50.
[3] abbreviates: inhibition of eIF4E/EDA-m7GDP-ATTO-550 binding, calculated IC50 values, Table 4B, read-out: IC50.

Where two headings read alike, the source gives them in different places.

Data on 47 compounds can be found in US11286268B1, “EIF4E-inhibiting compounds and methods” (EFFECTOR THERAPEUTICS, INC., priority 2019, dated 2022).

Sequence of recombinant eIF4E (P06730 whole entry): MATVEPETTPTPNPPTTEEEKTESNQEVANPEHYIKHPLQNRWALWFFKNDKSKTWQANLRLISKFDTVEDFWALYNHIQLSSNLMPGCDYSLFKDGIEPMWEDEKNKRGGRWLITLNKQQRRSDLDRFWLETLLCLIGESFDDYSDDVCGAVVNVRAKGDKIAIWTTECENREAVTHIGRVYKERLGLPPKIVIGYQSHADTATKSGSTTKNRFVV

On to `Cc1cc(-c2cc(Cl)ccc2OCCn2c(C)nc3cc(C(F)(F)F)c(N4CCN(C)CC4)c(C#N)c3c2=O)c2scc(C(=O)OC(C)OC(=O)OC3CCCCC3)c2n1` (centres unmarked) [compound 1082], for which the IC50 under setting [1] lay within 50 to 1000 nM and the IC50 under setting [2] was 903 nM.

As to `Cc1nc2cncc(C#N)c2c(=O)n1CCOc1ccc(Cl)cc1-c1ccnc2c(C(=O)O)csc12` [compound 140], the IC50 was 50 to 1000 nM under setting [1] and 50 nM under setting [2].

Consider `Cc1nc2cnc(N3CCN(CCOC(F)F)CC3)c(C#N)c2c(=O)n1CC#Cc1ccc(Cl)cc1-c1ccnc2c(C(=O)O)csc12` [compound 1464], for which the IC50 under setting [3] is 13.4 nM.

Regarding `Cc1cc(-c2cc(Cl)ccc2OCCn2c(C)nc3cc(C(F)(F)F)cc(C#N)c3c2=O)c2scc(C(=O)O)c2n1` [compound 121], the IC50 under setting [1] was below 50 nM and the IC50 under setting [2] was 37.5 nM.

Regarding `COC(=O)c1csc2c(-c3cc(Cl)ccc3OCCn3c(C)nc4cc(C(F)(F)F)c(N5CCN(C)CC5)c(C#N)c4c3=O)cc(C)nc12` [compound 1391], under setting [3], the IC50 was 37.6 nM.

With `Cc1nc2ccc(C(N)=O)c(C#N)c2c(=O)n1CCOc1ccc(Cl)cc1-c1ccnc2c(C(=O)O)csc12` [compound 316], the IC50 under setting [1] was below 50 nM and the IC50 under setting [2] was 20.4 nM.

Regarding `Cc1cc(-c2cc(Cl)ccc2OCCn2c(C)nc3c(F)cc(CCN(C)C)c(C#N)c3c2=O)c2scc(C(=O)O)c2n1` [compound 608], the IC50 runs as follows: under setting [1], below 50 nM; under setting [2], 18.6 nM.

Take `Cc1nc2cnc(N3CCN(CCF)C(C)(C)C3)c(C#N)c2c(=O)n1CCOc1ccc(Cl)cc1-c1ccnc2c(C(=O)O)csc12` [compound 1333]: the IC50 under setting [3] is 26.2 nM.

`Cc1nc2cnc(N(C)C3CCN(CC(F)(F)F)CC3)c(C#N)c2c(=O)n1CC#Cc1ccc(Cl)cc1-c1ccnc2c(C(=O)NS(=O)(=O)c3ccnn3C)csc12` [compound 1668]: the IC50 under setting [3] was 5.67 nM.

`N#Cc1c(C(F)F)ccc2ncn(CCOc3ccc(Cl)cc3-c3ccnc(C(=O)O)c3)c(=O)c12` [compound 161]: under setting [1], the IC50 was in the range of 50 to 1000 nM.

Regarding `CCC(F)(CC)CN1CCN(c2ncc3nc(C)n(CCOc4ccc(Cl)cc4-c4ccnc5c(C(=O)O)csc45)c(=O)c3c2C#N)CC1` [compound 1469], under setting [3], the IC50 is 23 nM.

Take `Cc1nc2cnc(C#CCN(C)C3(C)CC3)c(C#N)c2c(=O)n1CCOc1ccc(Cl)cc1-c1ccnc2c(C(=O)O)csc12` [compound 1346]: under setting [3], the IC50 is 19.7 nM.

Take `Cc1nc2cnc(N3CCN(C4(CC(F)(F)F)CC4)CC3)c(C#N)c2c(=O)n1CCOc1ccc(Cl)cc1-c1ccnc2c(C(=O)O)csc12` [compound 1361]: the IC50 under setting [3] is 21.3 nM.

As to `Cc1nc2cc(CN(C)C)cc(C#N)c2c(=O)n1CCOc1ccc(Cl)cc1-c1ccnc2c(C(=O)O)csc12` [compound 512], the IC50 runs as follows: under setting [1], 50 to 1000 nM; under setting [2], 71.8 nM.

On to `Cc1c(CCOc2ccc(Cl)cc2-c2ccnc3c(C(=O)O)csc23)c(=O)c2c(C#N)cc(C(F)(F)F)cc2n1CCF` [compound 362], for which the IC50 under setting [1] was in the range of 50 to 1000 nM and the IC50 under setting [2] is 72.2 nM.

On to `CCC#Cc1c(C(=O)O)cccc1-c1cc(Cl)ccc1OCCn1c(C(F)F)nc2cccc(C#N)c2c1=O` [compound 1987], for which the IC50 under setting [3] was 1290 nM.

On to `Cc1cc(-c2cc(Cl)ccc2OCCn2c(C)nc3ccc(CCN(C)C)c(C#N)c3c2=O)c2scc(C(=O)O)c2n1` [compound 584], for which the IC50 is, setting by setting: under setting [1], below 50 nM; under setting [2], 23.5 nM.

Turning to `Cc1cc(-c2cc(Cl)ccc2OCCn2c(C)nc3c(C4COC4)ncc(C#N)c3c2=O)c2scc(C(=O)O)c2n1` [compound 1419], the IC50 under setting [3] was 6.76 nM.

For the compound `Cc1nc2cnc(C3=CCN(C4CC4)CC3)c(C#N)c2c(=O)n1CC#Cc1ccc(Cl)cc1-c1ccnc2c(C(=O)O)csc12` [compound 1461], the IC50 under setting [3] was 13.8 nM.

Turning to `Cc1cc(-c2c(C(F)(F)F)cc3nc(C)n(CCOc4ccc(Cl)cc4-c4cc(C)nc5c(C(=O)O)csc45)c(=O)c3c2C#N)cnn1` [compound 442], the IC50 by setting is: under setting [1], below 50 nM; under setting [2], 17.7 nM.

For `Cc1nc2cc(OC(F)(F)F)c(C#N)c(C#N)c2c(=O)n1CCOc1ccc(Cl)cc1-c1ccnc2c(C(=O)O)csc12` [compound 543], the IC50 is, setting by setting: under setting [1], below 50 nM; under setting [2], 38.2 nM.

Take `COc1cc(S(=O)(=O)NC(=O)c2csc3c(-c4cc(Cl)ccc4C#CCn4c(C)nc5cnc(N(C)C6CCN(CC(C)(F)F)CC6)c(C#N)c5c4=O)ccnc23)ccn1` [compound 1683]: the IC50 under setting [3] was 18.3 nM.

On to `Cc1nc2cnc(N3CCN(CC4(F)CC4)CC3)c(C#N)c2c(=O)n1CCOc1ccc(Cl)cc1-c1ccnc2c(C(=O)O)csc12` [compound 1470], for which the IC50 under setting [3] was 30.8 nM.

Consider `Cc1cc(-c2cc(Cl)ccc2OCCn2c(C)nc3cc(C(F)(F)F)c(-c4cncc(F)c4)c(C#N)c3c2=O)c2scc(C(=O)O)c2n1` [compound 342], for which the IC50 reads like this: under setting [1], below 50 nM; under setting [2], 47.4 nM.

In the case of `Cc1nc2cnc(N(C)C3CCN(CC(F)(F)F)CC3)c(C#N)c2c(=O)n1CC#Cc1ccc(Cl)cc1-c1ccnc2c(C(=O)NS(=O)(=O)CC(F)(F)F)csc12` [compound 1593], the IC50 under setting [3] was 61.6 nM.

On to `Cc1ccc(-c2c(C(F)(F)F)cc3nc(C)n(CCOc4ccc(Cl)cc4-c4cc(C)nc5c(C(=O)O)csc45)c(=O)c3c2C#N)c(C)n1` [compound 349], for which the IC50 runs as follows: under setting [1], below 50 nM; under setting [2], 5.84 nM.

Consider `Cc1cc(-c2cc(Cl)ccc2C#CCn2c(C)nc3cc(C(F)(F)F)cc(C#N)c3c2=O)c2scc(C(=O)O)c2n1` [compound 560], for which the IC50 is below 50 nM under setting [1] and 4.77 nM under setting [2].

For the compound `Cc1nc2cc(C(F)F)c(C(F)F)c(C#N)c2c(=O)n1CCOc1ccc(Cl)cc1-c1cccc(C(=O)O)c1` [compound 64], the IC50 by setting is: under setting [1], 50 to 1000 nM; under setting [2], 62.5 nM.

As for `Cc1nc2cc(CN(C)C)c(Cl)c(C#N)c2c(=O)n1CCOc1ccc(Cl)cc1-c1ccnc2c(C(=O)O)csc12` [compound 516], the IC50 under setting [1] was below 50 nM and the IC50 under setting [2] is 34.4 nM.

Turning to `Cc1ncc(F)cc1-c1c(CN(C)C)cc2nc(C)n(CCOc3ccc(Cl)cc3-c3ccnc4c(C(=O)O)c(C)sc34)c(=O)c2c1C#N` [compound 1284], the IC50 under setting [3] is above 1000 nM.

For `Cc1cc(-c2cc(Cl)ccc2OCCn2c(C)nc3cc(Cl)c(O)c(C#N)c3c2=O)c2scc(C(=O)O)c2n1` [compound 695], the IC50 is below 50 nM under setting [1] and 1.05 nM under setting [2].

For the compound `Cc1nc2cnc(N(C)C3CCN(CC4(C(F)(F)F)CCC4)CC3)c(C#N)c2c(=O)n1CC#Cc1ccc(Cl)cc1-c1ccnc2c(C(=O)O)csc12` [compound 1588], the IC50 under setting [3] was 26.4 nM.

For `Cc1nc2cnc(N(C)[C@H]3C[C@H](N(C)CCF)C3)c(C#N)c2c(=O)n1CC#Cc1ccc(Cl)cc1-c1ccnc2c(C(=O)O)csc12` [compound 1532], the IC50 under setting [3] is 11.2 nM.

As to `Cc1nc2cnc(N(C)C3CCN(C4CC(F)(F)C4)CC3)c(C#N)c2c(=O)n1CC#Cc1ccc(Cl)cc1-c1ccnc2c(C(=O)NS(=O)(=O)C(C)C)csc12` [compound 1808], the IC50 under setting [3] is 5.4 nM.

On to `Cc1cc(-c2cc(Cl)ccc2OCCn2c(C)nc3cc(C(F)(F)F)c(N4CCN(C5COC5)CC4)c(C#N)c3c2=O)c2scc(C(=O)O)c2n1` [compound 1242], for which the IC50 is, setting by setting: under setting [1], below 50 nM; under setting [3], 8.85 nM.

On to `Cc1csc2c(-c3cc(Cl)ccc3OCCn3c(C)nc4cc(C(F)(F)F)c(N5CCN(C)CC5)c(C#N)c4c3=O)ccnc12` [compound 1249], for which the IC50 is 50 to 1000 nM under setting [1] and 75.9 nM under setting [3].

Turning to `Cc1nc2cc(CN(C)CCF)c(OC(F)F)c(C#N)c2c(=O)n1CCOc1ccc(Cl)cc1-c1ccnc2c(C(=O)O)csc12` [compound 1278], the IC50 under setting [3] was 10.6 nM.

`Cc1nc2cnc(N3CCN(CCC(F)(F)F)CC3)c(C#N)c2c(=O)n1CC#Cc1ccc(Cl)cc1-c1ccnc2c(C(=O)NS(C)(=O)=O)csc12` [compound 1486]: under setting [3], the IC50 was 10.7 nM.

`Cc1cc(-c2cc(Cl)ccc2OCCn2c(C)nc3cc(C)c(C)c(C#N)c3c2=O)c2scc(C(=O)O)c2n1` [compound 628]: the IC50 is below 50 nM under setting [1] and 28.5 nM under setting [2].

With `Cc1nc2cc(OC(F)F)c(C(F)F)c(C#N)c2c(=O)n1CCOc1ccc(Cl)cc1-c1ccnc2c(C(=O)O)csc12` [compound 539], the IC50 reads like this: under setting [1], below 50 nM; under setting [2], 47.2 nM.

For the compound `Cc1cc(-c2cc(Cl)ccc2OCCn2c(C)nc3cnc(-c4cc(F)cnc4C)c(C#N)c3c2=O)c2scc(C(=O)O)c2n1` [compound 1051], the IC50 is, setting by setting: under setting [1], below 50 nM; under setting [2], 5.02 nM.

With `Cc1nc2cnc(N(C)C3CCN(C)CC3)c(C#N)c2c(=O)n1CC#Cc1ccc(Cl)cc1-c1ccnc2c(C(=O)O)csc12` [compound 1495], the IC50 under setting [3] is 7.09 nM.

On to `Cc1nc2cnc(C3CCN(CC(F)(F)F)CC3)c(C#N)c2c(=O)n1CC#Cc1ccc(Cl)cc1-c1ccnc2c(C(=O)O)csc12` [compound 1116], for which the IC50 under setting [1] is below 50 nM and the IC50 under setting [2] is 17.1 nM.

For the compound `Cc1cc(-c2cc(Cl)ccc2OCCn2c(C)nc3c(C)nc(-c4cccc(C(F)(F)F)c4)c(C#N)c3c2=O)c2scc(C(=O)O)c2n1` [compound 925], the IC50 under setting [1] was below 50 nM and the IC50 under setting [2] was 43.1 nM.

`Cc1nc2cc(CN3CC(F)(F)C3)c(OC(F)F)c(C#N)c2c(=O)n1CCOc1ccc(Cl)cc1-c1ccnc2c(C(=O)O)csc12` [compound 1277]: the IC50 under setting [3] was 38.4 nM.

As for `Cc1nc2cnc(N3CCC34CCN(CC(F)F)CC4)c(C#N)c2c(=O)n1CC#Cc1ccc(Cl)cc1-c1ccnc2c(C(=O)O)csc12` [compound 1500], the IC50 under setting [3] was 17 nM.

`Cc1nc2cnc(/C=C/CN3CC(F)C3)c(C#N)c2c(=O)n1CCOc1ccc(Cl)cc1-c1ccnc2c(C(=O)O)csc12` [compound 1122]: the IC50 reads like this: under setting [1], below 50 nM; under setting [2], 14.6 nM.
